Assays:
PPAR-α = target: T1, PPAR-α (Homo sapiens, UniProt Q07869); assay: Scintillation Proximity Assay (SPA), displacement of 3H labeled GW2331; assay type: binding; conditions: 3H GW2331 displacement, read-out: PPAR-alpha Ki
T1 sequence (Q07869 1-468): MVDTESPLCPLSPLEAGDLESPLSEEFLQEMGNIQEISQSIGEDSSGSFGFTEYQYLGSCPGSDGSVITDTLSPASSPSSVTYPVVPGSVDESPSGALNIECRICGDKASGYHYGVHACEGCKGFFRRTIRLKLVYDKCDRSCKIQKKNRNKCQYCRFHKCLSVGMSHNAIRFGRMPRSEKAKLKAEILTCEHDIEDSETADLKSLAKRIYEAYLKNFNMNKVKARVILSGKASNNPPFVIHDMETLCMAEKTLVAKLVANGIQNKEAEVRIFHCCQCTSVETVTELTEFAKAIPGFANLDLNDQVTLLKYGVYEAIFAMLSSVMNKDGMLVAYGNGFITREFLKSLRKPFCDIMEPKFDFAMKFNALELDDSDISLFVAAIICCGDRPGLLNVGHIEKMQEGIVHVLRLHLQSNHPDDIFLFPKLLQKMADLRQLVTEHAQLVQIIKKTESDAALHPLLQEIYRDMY
Text: (§1) Scintillatian Proximity Assay (SPA) Assays
(§2) In the SPA assay, 3H labeled darglitazone (for PPAR-γ) or GW2331 (for PPAR-α) is bound to the PPAR protein captured on SPA polylysine beads and generates radioactive count signal that can be detected by TopCounts (Packard). The PPAR-bound 3H labeled ligand can be displaced by an unlabeled compound. The Ki of the compound can be then determined by the extent of displacement at various compound concentrations. Reagents: • SPA polylysine beads, which can be purchased from Amersham Bioscience. • H labeled Darglitazone for PPAR-γ. • H labeled GW2331 for PPAR-α. • PPAR proteins. • Buffer—PBS, 10% glycerol, 14 mM beta-mercaptoethanol.

PPAR-γ = target: T2, PPAR-γ (Homo sapiens, UniProt P37231); assay: Scintillation Proximity Assay (SPA), displacement of 3H labeled darglitazone; assay type: binding; conditions: 3H darglitazone displacement, read-out: PPAR-gamma Ki
T2 sequence (P37231 1-505): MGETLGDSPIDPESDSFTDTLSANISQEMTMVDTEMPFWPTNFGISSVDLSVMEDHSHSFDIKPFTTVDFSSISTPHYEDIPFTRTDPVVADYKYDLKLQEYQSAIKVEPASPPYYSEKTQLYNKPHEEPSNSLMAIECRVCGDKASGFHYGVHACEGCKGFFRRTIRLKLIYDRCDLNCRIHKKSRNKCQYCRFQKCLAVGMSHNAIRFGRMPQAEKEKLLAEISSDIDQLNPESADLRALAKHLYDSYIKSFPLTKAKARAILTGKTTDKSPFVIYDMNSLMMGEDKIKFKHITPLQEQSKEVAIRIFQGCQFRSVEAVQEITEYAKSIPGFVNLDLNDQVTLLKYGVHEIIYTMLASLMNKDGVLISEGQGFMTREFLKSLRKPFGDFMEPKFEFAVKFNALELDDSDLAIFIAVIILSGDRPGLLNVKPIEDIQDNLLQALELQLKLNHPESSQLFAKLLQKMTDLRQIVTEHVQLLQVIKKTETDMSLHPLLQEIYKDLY
Text: as §1, §2

| Compound | Ki (PPAR-α) [nM] | Ki (PPAR-γ) [nM] |
| --- | --- | --- |
| Cc1oc(-c2ccccc2)nc1CCCOC(=O)NCc1ccc(OC(C)(C)C(=O)O)cc1 [Example B-07] | 12000 | 650 |
| Cc1oc(-c2cccc(F)c2)nc1CCOc1cccc(-c2cccc(OC(C)(C)C(=O)O)c2)c1 [Example A-21] | 310 | 88 |
| Cc1cccc(-c2nc(CCOc3ccc(CC4(C(=O)O)CCCO4)cc3)c(C)o2)c1 (stereo not drawn) [Example C-89] | 30 | 40 |
| Cc1oc(-c2cccc(Cl)c2)nc1CCOc1ccc(CC2(C(=O)O)CCCO2)cc1 (stereo not drawn) [Example C-86] | 13 | 5 |
| COc1cccc(-c2nc(CCOc3ccc(CC4(C(=O)O)CCC4)cc3)c(C)o2)c1 [Example C-29] | 120 | 6 |
| Cc1oc(-c2ccccc2)nc1CCOc1ccc(CC2(C(=O)O)CCCCO2)nc1 (stereo not drawn) [Example C-57] | 1800 | 1100 |
| CC(C)(Oc1cccc(-c2cccc(OCCCOCc3ccccc3)c2)c1)C(=O)O [Example A-27] | 1300 | 2400 |
| O=C(O)C1(Oc2ccc(OCc3nc(-c4ccccc4)oc3-c3ccccc3)cc2)CCC1 [Example C-36] | 21000 | 1700 |
| Cc1oc(-c2ccccc2)nc1COc1ccc2cc(CC3(C(=O)O)CCCO3)ccc2c1 (stereo not drawn) [Example C-93] | 300 | 11 |
| O=C(O)C1(Oc2cccc(-c3cccc(OCc4cc(-c5ccccc5)no4)c3)c2)CCC1 [Example A-14] | 150 | 1300 |
| COc1ccc(-c2nc(COc3cccc(-c4cccc(OC5(C(=O)O)CCC5)c4)c3)no2)cc1 [Example A-17] | 1600 | 1900 |
| Cc1ccc(N2CCC(CCOc3cccc(-c4cccc(OC(C)(C)C(=O)O)c4)c3)CC2)nn1 [Example A-03, 2-Methyl-2-[(3′-{2-[1-(6-methylpyridazin-3-yl)piperidin-4-yl]ethoxy}1,1′-biphenyl-3-yl)oxy]propanoic acid] | 19000 | 10000 |
| Cc1oc(-c2ccccc2)nc1CCOc1ccc2cc(CC3(C(=O)O)CCCO3)ccc2c1 (stereo not drawn) [Example C-91] | 1800 | 390 |
| Cc1oc(-c2ccc(C(F)(F)F)cc2)nc1CCOc1ccc(CC2(C(=O)O)CCCO2)cc1 (stereo not drawn) [Example C-90] | 110 | 17 |
| Cc1oc(-c2ccccc2)nc1CCCOC(=O)NCc1cccc(OC(C)(C)C(=O)O)c1 [Example B-19] | 340 | 740 |
| CCOC(Cc1cccc(CNC(=O)OCc2nc(-c3ccccc3)oc2C)c1)C(=O)O (stereo not drawn) [Example B-22] | 460 | 150 |
| Cc1oc(-c2ccc(C(N)=O)cc2)nc1CCOc1ccc(CC2(C(=O)O)CCCO2)cc1 (stereo not drawn) [Example C-81] | 750 | 15 |
| Cc1oc(-c2ccc(C(F)(F)F)cc2)nc1CCOc1ccc(CC2(C(=O)O)CCC2)cc1 [Example C-33] | 10 | 50 |
| Cc1oc(-c2ccccc2)nc1COc1ccc(CC2(C(=O)O)CCC2)cc1 [Example C-17] | 3200 | 26000 |
| Cc1oc(-c2ccc(C(N)=O)cc2)nc1CCOc1ccc(CC2(C(=O)O)CCC2)cc1 [Example C-23] | 2500 | 190 |
| CC(C)(Oc1cccc(CNC(=O)OCc2cccc(Oc3ccccc3)c2)c1)C(=O)O [Example B-10] | 190 | 170 |
| Cc1oc(-c2cccc(N(C)C)c2)nc1CCOc1ccc(CC2(C(=O)O)CCC2)cc1 [Example C-21] | 66 | 53 |
| CCOC(Cc1cccc(CNC(=O)OCCCc2nc(-c3ccccc3)oc2C)c1)C(=O)O (stereo not drawn) [Example B-23] | 2700 | 3400 |
| Cc1nn(-c2ccccc2)nc1CCOc1cccc(-c2cccc(OC(C)(C)C(=O)O)c2)c1 [Example A-26] | 330 | 150 |
| Cc1oc(-c2ccccc2)nc1COC(=O)NCc1cccc(OC(C)(C)C(=O)O)c1 [Example B-06] | 130 | 370 |
| CC(C)(Oc1cccc(COC(=O)NCCc2ccc(C(F)(F)F)cc2)c1)C(=O)O [Example B-04] | 48000 | 1500 |
| Cc1oc(-c2ccccc2)nc1CCCOc1cccc(-c2cccc(OC(C)(C)C(=O)O)n2)c1 [Example A-13] | 10000 | 3500 |
| Cc1oc(-c2ccccc2)nc1CCCOC(=O)NCc1cccc(OC2(C(=O)O)CCC2)c1 [Example B-16] | 84 | 1800 |
| Cc1oc(-c2ccccc2)nc1CCOc1cccc(CC2(C(=O)O)CCC2)c1 [Example C-18] | 65 | 3500 |

The next lines start with the values.

| Ki (PPAR-α) [nM] | Ki (PPAR-γ) [nM] | Compound |
| --- | --- | --- |
| 33 | 19 | COC(Cc1ccc(OCCc2nc(-c3ccc(C)cc3)oc2C)nc1)C(=O)O [Example D-10] |
| 300 | 11 | COC(Cc1ccc(OCCc2nc(-c3cccc(C)c3)oc2C)nc1)C(=O)O [Example D-03] |
| 620 | 450 | CCOC(Cc1ccc(OCCc2ccc(OS(=O)(=O)CC)cc2)nc1)C(=O)O [Example D-18] |
| 730 | 230 | COC(C)(Cc1ccc(OCCc2nc(-c3cccc(C)c3)oc2C)nc1)C(=O)O [Example D-36] |
| 910 | 31 | CCOC(Cc1ccc(OCCc2ccc(OS(=O)(=O)c3ccccc3)cc2)nc1)C(=O)O [Example D-17] |
| 4700 | 530 | CCOc1ccc(-c2nc(CCOc3ccc(CC(C)(OC)C(=O)O)cn3)c(C)o2)cc1 [Example D-37] |
| 290 | 440 | COC(Cc1ccc(OCCc2nc(-c3ccc(Cl)cc3)oc2C)nc1)C(=O)O [Example D-04] |
| 10000 | 2100 | CCOc1ccc(CCOc2ccc(CC(OCC)C(=O)O)cn2)cc1 [Example D-21] |
| 1800 | 9600 | COC(C)(Cc1ccc(OCCc2ccc(Oc3ccccc3)cc2)nc1)C(=O)O [Example D-40] |
| 550 | 690 | COC(C)(Cc1ccc(OCCc2nc(-c3ccccc3)sc2C)nc1)C(=O)O [Example D-33] |

Source: patent US20050234066A1, “Alpha substituted carboxylic acids” (Agouron Pharmaceuticals, Inc., priority 2004, published 2005)
